Reference: paper PMC8125951, “Exploring the 2′-Hydroxy-Chalcone Framework for the Development of Dual Antioxidant and Soybean Lipoxygenase Inhibitory Agents” (Molecules, 2021)
“And” between values parts separate entries of the source, which are not always exact repeats. Equal values may be shown once. Read-outs that look alike come from different tables or passages of the source.

How the values were obtained:
[1] = Interaction with the stable free radical DPPH (reducing activity); settings: 100 μM
Procedure: The first assay refers to the interaction of the compounds with the stable free radical DPPH and it is a fast, simple, cost-effective, and widely used method, where the DPPH radical reacts directly with the antioxidant and is decolorized. This interaction indicates their radical scavenging ability in an iron-free system. The scavenging effect of the synthesized analogues on the DPPH radical was evaluated according to the methods of Hadjipavlou et al..
To an ethanolic solution of DPPH (100 μM) in absolute ethanol, an equal volume of the compounds dissolved in DMSO was added (100 μM). […]

[2] = Inhibition of linoleic acid lipid peroxidation induced by AAPH
Excerpt: The second technique is based on the ability of the compounds to inhibit lipid peroxidation of linoleic acid induced by 2,2′-Azobis(2-amidinopropane) dihydrochloride (AAPH) radical (Table 2). AAPH-induced linoleic acid oxidation has been developed as a quick and reliable method for measuring the antioxidant activity. The thermal free radical producer (AAPH) generates free radicals in the solution which cause the oxidation of linoleic acid, and the method is a measure of how effective antioxidants protect against lipid peroxidation in vitro. Oxidation of linoleic acid by AAPH is followed by UV spectrophotometry in a highly diluted sample [61].
2,2′-Azobis(2-amidinopropane) dihydrochloride (AAPH) was used as a free radical initiator. Ten microliters of the 16 mM linoleic acid sodium salt solution was added to the UV cuvette containing 0.93 mL of 0.05 M phosphate buffer, pH 7.4 prethermostated at 37 °C. The oxidation reaction was initiated at 37 °C under air by the addition of 50 μL of 40 mM AAPH solution. Oxidation was carried out in the presence of the synthesized compounds (10 μL, from a stock solution of 10 mM in DMSO). In the assay without antioxidant, lipid oxidation was measured in the presence of the same level of DMSO.

[3] = biological target: T1, soybean lipoxygenase (Glycine max, UniProt P08170); test: Soybean LOX inhibition study in vitro; type: biochemical; settings: for inhibition at 100 µM: read-out: Inhibition of Soybean Lipoxygenase 100 μM (%), at 100 μM
T1 sequence (P08170 1-839): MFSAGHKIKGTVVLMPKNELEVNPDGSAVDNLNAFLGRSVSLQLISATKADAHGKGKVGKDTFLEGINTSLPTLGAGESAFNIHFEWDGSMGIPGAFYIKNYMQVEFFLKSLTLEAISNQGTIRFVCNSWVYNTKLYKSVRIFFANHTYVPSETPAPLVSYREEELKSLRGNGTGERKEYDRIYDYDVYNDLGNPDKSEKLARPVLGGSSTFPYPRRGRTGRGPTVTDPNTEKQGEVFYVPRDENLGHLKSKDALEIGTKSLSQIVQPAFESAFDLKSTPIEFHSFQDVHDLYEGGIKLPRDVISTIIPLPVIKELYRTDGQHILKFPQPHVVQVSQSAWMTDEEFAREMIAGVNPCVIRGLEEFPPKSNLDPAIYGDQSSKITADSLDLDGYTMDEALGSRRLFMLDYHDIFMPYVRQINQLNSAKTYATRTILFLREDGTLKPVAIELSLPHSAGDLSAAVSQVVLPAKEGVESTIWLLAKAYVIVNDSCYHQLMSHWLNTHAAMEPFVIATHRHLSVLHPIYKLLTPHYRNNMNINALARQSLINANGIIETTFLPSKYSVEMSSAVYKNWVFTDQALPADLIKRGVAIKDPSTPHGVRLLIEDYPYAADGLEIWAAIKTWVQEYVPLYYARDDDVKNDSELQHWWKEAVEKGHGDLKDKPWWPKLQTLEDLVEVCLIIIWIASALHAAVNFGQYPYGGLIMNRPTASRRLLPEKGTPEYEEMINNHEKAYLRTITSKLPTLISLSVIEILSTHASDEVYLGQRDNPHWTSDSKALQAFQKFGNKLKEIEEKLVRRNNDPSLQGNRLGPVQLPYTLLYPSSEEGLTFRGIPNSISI
Procedure: Furthermore, as an indication of their anti-inflammatory activity, all the molecules were tested as inhibitors of soybean lipoxygenase (LOX). The enzyme lipoxygenase catalyzes the first two steps in the metabolism of arachidonic acid, which is cleaved from membrane phospholipids to leukotrienes (LTB4). LTB4 generation is considered to be important in the pathogenesis of neutrophil-mediated inflammatory diseases. For this study, the UV absorbance-based soybean LOX assay was used, which is a plant enzyme with satisfactory homology with the human 5-LOX [61, 62, 63, 64, 65, 66].
The tested compounds dissolved in DMSO were incubated at room temperature with sodium linoleate (0.1 mL) and 0.2 mL of enzyme solution ([…] in saline) in Tris buffer pH 9.

[4] = read-out: Inhibition of Soybean Lipoxygenase IC50

SMILES	Interaction with the Free Radical DPPH (%) ([1]; 20 min)	Interaction with the Free Radical DPPH (%) ([1]; 60 min)	Inhibition of Lipid Peroxidation of Linoleic Acid Induced by AAPH Radical (%) ([2]; 100 μM)	IC50 [3, 4] [µM]	Inhibition of Lipid Peroxidation of Linoleic Acid Induced by AAPH Radical (%) ([2]; 0 min)	Inhibition of Lipid Peroxidation of Linoleic Acid Induced by AAPH Radical (%) ([2]; 3 min)	Inhibition of Lipid Peroxidation of Linoleic Acid Induced by AAPH Radical (%) ([2]; 6 min)	Inhibition of Lipid Peroxidation of Linoleic Acid Induced by AAPH Radical (%) ([2]; 9 min)	inhibition at 100 µM [3] [%]	IC50 [3] [µM]
COc1cccc(/C=C/C(=O)c2cc(Cl)ccc2O)c1OC [Compound 3e, 5′-chloro-2,3-dimethoxy-2′-hydroxy-chalcone]	no	no	20.0%	100						
COC(=O)c1ccc(/C=C/C(=O)c2ccccc2O)cc1 [Compound 5, 4-Methoxycarbonyl-2′-Hydroxy-Chalcone]	no	no	100%	100	95.4	96.9	92.5	98.9		
O=C(O)c1ccc(/C=C/C(=O)c2cc(Cl)ccc2O)cc1 [Compound 3k, 4-carboxy-5′-chloro-2′-hydroxy-chalcone]	no	no	no	67.5						
COc1ccc(/C=C/C(=O)c2cc(Br)cc(Br)c2O)cc1OC [Compound 3g, 3′,5′-dibromo-3,4-dimetoxy-2′-hydroxy-chalcone]	totally inactive and no	no	inactive and 31.0%	68.5						
C[C@H](Cc1ccc(O)c(O)c1)[C@@H](C)Cc1ccc(O)c(O)c1 [NDGA, Nordihydroguaiaretic acid, reference compound]	87.0%	93.0%								
COc1ccc(/C=C/C(=O)c2cc(Cl)ccc2O)cc1OC [Compound 3d, 5′-chloro-3,4-dimethoxy-2′-hydroxy-chalcone]	no	no	no						32	
COCOc1ccc(/C=C/C(=O)c2cc(Br)ccc2O)cc1OCOC [Compound 3h, 5′-bromo-3,4-dimethoxymethoxy-2′-hydroxy-chalcone]		6.0%	65.6%	55						
COc1ccc(/C=C/C(=O)c2cc(Br)ccc2O)cc1OC [Compound 3f, 5′-bromo-3,4-dimethoxy-2′-hydroxy-chalcone]	totally inactive and no	no	inactive and no						38	
O=C(O)c1ccc(/C=C/C(=O)c2ccccc2O)cc1 [Compound 3j, 4-carboxy-2′-hydroxy-chalcone]	no	no	no	100						
O=C(/C=C/c1ccccc1)c1ccccc1O [Compound 3l, 2′-hydroxy-chalcone]	no	no	87.6%		87.6	93.2	95.7	94.3		100
COCOc1ccc(/C=C/C(=O)c2cc(Br)cc(Br)c2O)cc1OCOC [Compound 3i, 3′,5′-bromo-3,4-dimethoxymethoxy-2′-hydroxy-chalcone]	totally inactive and no	no	93.0%	67.5	95.6	98.6	96.9	99.2		
